Test results: US7371766B2, “Curcumin analogs with anti-tumor and anti-angiogenic properties” (Emory University, priority 1999, dated 2008)

Tests used:
COLO 205 = assay: cells; conditions: Homo sapiens, COLO 205, 48 h; for GI50: read-out: Median Growth Inhibitory Concentration (GI50); for CC50: read-out: Median Lethal Concentration (LC50)
NCI-H23 = assay: cells; conditions: Homo sapiens, NCI-H23, 48 h; for GI50: read-out: Median Growth Inhibitory Concentration (GI50); for CC50: read-out: Median Lethal Concentration (LC50)
SF-295 = assay: cells; conditions: Homo sapiens, SF-295, 48 h; for GI50: read-out: Median Growth Inhibitory Concentration (GI50); for CC50: read-out: Median Lethal Concentration (LC50)
CCRF-CEM = assay: cells; conditions: Homo sapiens, 48 h; for GI50: read-out: Median Growth Inhibitory Concentration (GI50)
SK-MEL-5 = assay: cells; conditions: Homo sapiens, SK-MEL-5, 48 h; for GI50: read-out: Median Growth Inhibitory Concentration (GI50)
OVCAR-4 = assay: cells; conditions: Homo sapiens, OVCAR-4, 48 h; for GI50: read-out: Median Growth Inhibitory Concentration (GI50); for CC50: read-out: Median Lethal Concentration (LC50)
786-0 = assay: cells; conditions: Homo sapiens, 786-0, 48 h; for GI50: read-out: Median Growth Inhibitory Concentration (GI50); for CC50: read-out: Median Lethal Concentration (LC50)
MOLT-4 = assay: cells; conditions: Homo sapiens, MOLT-4, 48 h; for GI50: read-out: Median Growth Inhibitory Concentration (GI50); for CC50: read-out: Median Lethal Concentration (LC50)
PC-3 = assay: cells; conditions: Homo sapiens, PC-3, 48 h; for GI50: read-out: Median Growth Inhibitory Concentration (GI50); for CC50: read-out: Median Lethal Concentration (LC50)
RPMI-8226 = assay: cells; conditions: Homo sapiens, RPMI-8226, 48 h; for GI50: read-out: Median Growth Inhibitory Concentration (GI50)
A498 = assay: cells; conditions: Homo sapiens, A498, 48 h; for GI50: read-out: Median Growth Inhibitory Concentration (GI50); for CC50: read-out: Median Lethal Concentration (LC50)
DU-145 = assay: cells; conditions: Homo sapiens, DU-145, 48 h; for GI50: read-out: Median Growth Inhibitory Concentration (GI50); for CC50: read-out: Median Lethal Concentration (LC50)
IGROV1 = assay: cells; conditions: Homo sapiens, IGROV-1, 48 h; for GI50: read-out: Median Growth Inhibitory Concentration (GI50); for CC50: read-out: Median Lethal Concentration (LC50)
MDA-MB-231 = assay: cells; conditions: Homo sapiens, MDA-MB-231, 48 h; for GI50: read-out: Median Growth Inhibitory Concentration (GI50); for CC50: read-out: Median Lethal Concentration (LC50)
TK-10 = assay: cells; conditions: Homo sapiens, TK-10, 48 h; for GI50: read-out: Median Growth Inhibitory Concentration (GI50); for CC50: read-out: Median Lethal Concentration (LC50)
KM12 = assay: cells; conditions: Homo sapiens, KM12, 48 h; for GI50: read-out: Median Growth Inhibitory Concentration (GI50); for CC50: read-out: Median Lethal Concentration (LC50)
SK-MEL-28 = assay: cells; conditions: Homo sapiens, SK-MEL-28, 48 h; for GI50: read-out: Median Growth Inhibitory Concentration (GI50); for CC50: read-out: Median Lethal Concentration (LC50)
M14 = assay: cells; conditions: Homo sapiens, M14, 48 h; for GI50: read-out: Median Growth Inhibitory Concentration (GI50); for CC50: read-out: Median Lethal Concentration (LC50)
SK-OV-3 = assay: cells; conditions: Homo sapiens, SK-OV-3, 48 h; for GI50: read-out: Median Growth Inhibitory Concentration (GI50); for CC50: read-out: Median Lethal Concentration (LC50)
MDA-MB-435 = assay: cells; conditions: Homo sapiens, MDA-MB-435, 48 h; for GI50: read-out: Median Growth Inhibitory Concentration (GI50); for CC50: read-out: Median Lethal Concentration (LC50)
BT-549 = assay: cells; conditions: Homo sapiens, BT-549, 48 h; for GI50: read-out: Median Growth Inhibitory Concentration (GI50); for CC50: read-out: Median Lethal Concentration (LC50)
SNB-19 = assay: cells; conditions: Homo sapiens, SNB-19, 48 h; for GI50: read-out: Median Growth Inhibitory Concentration (GI50); for CC50: read-out: Median Lethal Concentration (LC50)
HOP-62 = assay: cells; conditions: Homo sapiens, HOP-62, 48 h; for GI50: read-out: Median Growth Inhibitory Concentration (GI50)
SNB-75 = assay: cells; conditions: Homo sapiens, SNB-75, 48 h; for GI50: read-out: Median Growth Inhibitory Concentration (GI50); for CC50: read-out: Median Lethal Concentration (LC50)
[1] = tested on: Sixty human tumor cell lines; conditions: NCI Anti-Tumor Screen, several cell types
OVCAR-3 = assay: cells; conditions: Homo sapiens, OVCAR-3, 48 h; for GI50: read-out: Median Growth Inhibitory Concentration (GI50); for CC50: read-out: Median Lethal Concentration (LC50)
T-47D = assay: cells; conditions: Homo sapiens, T47D, 48 h; for GI50: read-out: Median Growth Inhibitory Concentration (GI50); for CC50: read-out: Median Lethal Concentration (LC50)
UO-31 = assay: cells; conditions: Homo sapiens, UO-31, 48 h; for GI50: read-out: Median Growth Inhibitory Concentration (GI50); for CC50: read-out: Median Lethal Concentration (LC50)
[2] = read-out: Median Lethal Concentration (LC50)

SMILES: CC(=O)O.O=C1C(=Cc2ccccc2F)CNCC1=Cc1ccccc1F [EF24, 3,5-Bis-(2-fluorobenzylidene)-piperidin-4-one-acetate]
- GI50 (COLO 205): 0.8 µM
- CC50 (COLO 205): 8 µM
- GI50 (NCI-H23): 0.9 µM
- CC50 (NCI-H23): 5.3 µM
- GI50 (SF-295): 85 µM
- CC50 (SF-295): 20.6 µM
- GI50 (CCRF-CEM): 0.2 µM
- GI50 (SK-MEL-5): 1.3 µM
- GI50 (OVCAR-4): 0.7 µM
- CC50 (OVCAR-4): 17.2 µM
- GI50 (786-0): 0.2 µM
- CC50 (786-0): 1.6 µM
- GI50 (MOLT-4): 0.5 µM
- CC50 (MOLT-4): 66.2 µM
- GI50 (PC-3): 0.3 µM
- CC50 (PC-3): 7.2 µM
- GI50 (RPMI-8226): 0.2 µM
- GI50 (A498): 0.9 µM
- CC50 (A498): 3.4 µM
- GI50 (DU-145): 0.7 µM
- CC50 (DU-145): 5.4 µM
- GI50 (IGROV1): 0.8 µM
- CC50 (IGROV1): 7.1 µM
- GI50 (MDA-MB-231): 1.3 µM
- CC50 (MDA-MB-231): 9.1 µM
- GI50 (TK-10): 3.1 µM
- CC50 (TK-10): 27.8 µM
- GI50 (KM12): 0.2 µM
- CC50 (KM12): 3.4 µM
- GI50 (SK-MEL-28): 2.1 µM
- CC50 (SK-MEL-28): 33.1 µM
- GI50 (M14): 1.2 µM
- CC50 (M14): 27.7 µM
- GI50 (SK-OV-3): 1.7 µM
- CC50 (SK-OV-3): 12.8 µM
- GI50 (MDA-MB-435): 0.6 µM
- CC50 (MDA-MB-435): 7.4 µM
- GI50 (BT-549): 0.7 µM
- CC50 (BT-549): 4.7 µM
- GI50 (SNB-19): 0.7 µM
- CC50 (SNB-19): 19.3 µM
- GI50 (HOP-62): 0.7 µM
- GI50 (SNB-75): 2 µM
- CC50 (SNB-75): 8.8 µM
- GI50 compared with CISPLATIN, in words [1]: lower GI50 than the chemotherapeutic agent CISPLATIN for several cell types
- LC50 compared with CISPLATIN, in words [1]: lower LC50 than the chemotherapeutic agent CISPLATIN for several cell types
- GI50 (OVCAR-3): 1.1 µM
- CC50 (OVCAR-3): 16.2 µM
- GI50 (T-47D): 1.3 µM
- CC50 (T-47D): 51.9 µM
- GI50 (UO-31): 0.6 µM
- CC50 (UO-31): 4.5 µM

SMILES: O=C(C=Cc1ccc(F)cc1F)C=Cc1ccc(F)cc1F [EF9, 1,5-Bis(2,4-difluorophenyl)penta-1,4-dien-3-one]
- GI50 (COLO 205): 7.6 µM
- CC50 (COLO 205): 52.8 µM
- GI50 (NCI-H23): 12.3 µM
- CC50 (NCI-H23): 62.3 µM
- GI50 (SF-295): 14.2 µM
- CC50 (SF-295): 58.8 µM
- GI50 (CCRF-CEM): 3.1 µM
- CC50 (CCRF-CEM; [2]): > 100 µM
- GI50 (SK-MEL-5): 12.1 µM
- CC50 (SK-MEL-5; [2]): 53.1 µM
- GI50 (OVCAR-4): 15.2 µM
- CC50 (OVCAR-4): 61.6 µM
- GI50 (786-0): 3.5 µM
- CC50 (786-0): 49.6 µM
- GI50 (MOLT-4): 9.3 µM
- CC50 (MOLT-4): > 100 µM
- GI50 (PC-3): 4.8 µM
- CC50 (PC-3): 41 µM
- GI50 (RPMI-8226): 2.4 µM
- CC50 (RPMI-8226; [2]): 95.6 µM
- GI50 (A498): 2.4 µM
- CC50 (A498): 23 µM
- GI50 (DU-145): 2.1 µM
- CC50 (DU-145): 29 µM
- GI50 (IGROV1): 3.8 µM
- CC50 (IGROV1): 46.2 µM
- GI50 (MDA-MB-231): 14.1 µM
- CC50 (MDA-MB-231): 57.7 µM
- GI50 (TK-10): 17.9 µM
- CC50 (TK-10): 56.5 µM
- GI50 (KM12): 2.3 µM
- CC50 (KM12): 14.6 µM
- GI50 (SK-MEL-28): 18.6 µM
- CC50 (SK-MEL-28): 61.1 µM
- GI50 (M14): 4.1 µM
- CC50 (M14): 48.6 µM
- GI50 (SK-OV-3): 15.4 µM
- CC50 (SK-OV-3): 53.7 µM
- GI50 (MDA-MB-435): 3.2 µM
- CC50 (MDA-MB-435): 35.9 µM
- GI50 (BT-549): 6.5 µM
- CC50 (BT-549): 47.3 µM
- GI50 (SNB-19): 14.7 µM
- CC50 (SNB-19): 58.8 µM
- GI50 (HOP-62): 16.6 µM
- CC50 (HOP-62; [2]): 60.7 µM
- GI50 (SNB-75): 11.2 µM
- CC50 (SNB-75): 48.8 µM
- LC50 compared with CISPLATIN, in words [1]: lower LC50 than the chemotherapeutic agent CISPLATIN for several cell types
- GI50 (OVCAR-3): 14.1 µM
- CC50 (OVCAR-3): 52.1 µM
- GI50 (T-47D): 4.4 µM
- CC50 (T-47D): 56.1 µM
- GI50 (UO-31): 9.6 µM
- CC50 (UO-31): 49.5 µM

SMILES: O=C1C(=Cc2ccccc2O)CCCC1=Cc1ccccc1O [EF4, 2,6Bis(2-hydroxybenzylidene)cyclohexanone]
- GI50 (COLO 205): 2 µM
- CC50 (COLO 205): 8.7 µM
- GI50 (NCI-H23): 1.8 µM
- CC50 (NCI-H23): 9.4 µM
- GI50 (SF-295): 3.4 µM
- CC50 (SF-295): 79.5 µM
- GI50 (CCRF-CEM): 1.4 µM
- GI50 (SK-MEL-5): 1.6 µM
- GI50 (OVCAR-4): 2.5 µM
- CC50 (OVCAR-4): 18.4 µM
- GI50 (786-0): 2.3 µM
- CC50 (786-0): 15.9 µM
- GI50 (MOLT-4): 2.2 µM
- CC50 (MOLT-4): 69.5 µM
- GI50 (PC-3): 2.1 µM
- CC50 (PC-3): 28.6 µM
- GI50 (RPMI-8226): 0.6 µM
- GI50 (A498): 2.2 µM
- CC50 (A498): 16.2 µM
- GI50 (DU-145): 1.4 µM
- CC50 (DU-145): 7 µM
- GI50 (IGROV1): 2.9 µM
- CC50 (IGROV1): 43.9 µM
- GI50 (MDA-MB-231): 3.5 µM
- CC50 (MDA-MB-231): > 100 µM
- GI50 (TK-10): 3 µM
- CC50 (TK-10): 22.6 µM
- GI50 (KM12): 1.6 µM
- CC50 (KM12): 6.5 µM
- GI50 (SK-MEL-28): 2.9 µM
- CC50 (SK-MEL-28): 33.8 µM
- GI50 (M14): 1.9 µM
- CC50 (M14): 13.2 µM
- GI50 (SK-OV-3): 6.7 µM
- CC50 (SK-OV-3): 63.6 µM
- GI50 (MDA-MB-435): 1.8 µM
- CC50 (MDA-MB-435): 8 µM
- GI50 (BT-549): 2.4 µM
- CC50 (BT-549): 26.1 µM
- GI50 (SNB-19): 3.2 µM
- CC50 (SNB-19): 42.3 µM
- GI50 (HOP-62): 2.9 µM
- GI50 (SNB-75): 2 µM
- CC50 (SNB-75): 21.5 µM
- GI50 compared with CISPLATIN, in words [1]: lower GI50 than the chemotherapeutic agent CISPLATIN for several cell types
- LC50 compared with CISPLATIN, in words [1]: lower LC50 than the chemotherapeutic agent CISPLATIN for several cell types
- GI50 (OVCAR-3): 3.7 µM
- CC50 (OVCAR-3): 40.7 µM
- GI50 (T-47D): 1.7 µM
- CC50 (T-47D): 50.8 µM
- GI50 (UO-31): 1.6 µM
- CC50 (UO-31): 6.2 µM
